# Experimental data: publication PMC4125815, “Crystal structure of tRNA m^1A58 methyltransferase TrmI from Aquifex aeolicus in complex with S-adenosyl-L-methionine” (Journal of Structural and Functional Genomics, 2014)
# Target: T1, A. aeolicus TrmI (Aquifex aeolicus, UniProt O66653)
# T1 construct: gene aq_311
# Assay: X-ray crystal structure of the complex, […] Å
# Assay type: binding
# Settings: co-crystallised with 2 mM AdoMet, pH 8.4, 20 °C; methyl donor site in C-terminal domain, 4 AdoMet per tetramer
# T1 sequence (O66653 1-248): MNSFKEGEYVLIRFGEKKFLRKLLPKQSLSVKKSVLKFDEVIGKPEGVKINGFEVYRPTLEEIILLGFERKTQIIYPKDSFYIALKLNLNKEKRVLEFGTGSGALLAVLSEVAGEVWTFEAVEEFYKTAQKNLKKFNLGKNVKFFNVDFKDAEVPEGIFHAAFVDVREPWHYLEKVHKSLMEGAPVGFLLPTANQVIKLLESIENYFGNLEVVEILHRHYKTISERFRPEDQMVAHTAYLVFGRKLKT
compound,measurement,value
C[S+](CC[C@H](N)C(=O)O)C[C@H]1O[C@@H](n2cnc3c(N)ncnc32)[C@H](O)[C@@H]1O (stereo partly shown) [AdoMet],"X-ray crystal structure of the complex, 2.2 Å",The methyl donor AdoMet is bound in the C-terminal domain of the protein
